We go through one substance from patent EP3277384B1, “SOLID ORAL CARE COMPOSITIONS” (Unilever IP Holdings B.V., priority 2015, dated 2016).

A short description of the data set: Approximate solubility of zinc salts. The settings on record: at 25C.

Turning to Zinc oxide, the “Approximate Solubility” value came to 5 µg/mL.
